Measured values: paper PMC5979531, “Structural Requirements of Alkylglyceryl-L-Ascorbic Acid Derivatives for Melanogenesis Inhibitory Activity” (International Journal of Molecular Sciences, 2018)

How the values were obtained:
tyrosinase from mushroom = assay: Mushroom tyrosinase activity; assay type: biochemical
Experimental: Tyrosinase activities using L-tyrosine or L-DOPA as a substrate were determined according to the protocols described previously. Briefly, samples, L-tyrosine (2.5 mM, or L-DOPA, 3.0 mM), mushroom tyrosinase (46 units/mL), and phosphate buffer were mixed in a 96-well plate and incubated at 25 °C. (L-tyrosine; 30 min, L-DOPA; 5 min). The absorbance was then measured at 492 nm.

B16 melanoma 4A5 cells = assay: Theophylline-stimulated melanogenesis inhibition (melanin content); assay type: cell-based, murine; settings: 72 h; for inhibition at 3 µM / inhibition at 10 µM / inhibition at 30 µM / inhibition at 100 µM / IC50 / inhibition at 300 µM / inhibition at 1000 µM / inhibition at 3000 µM: Mus musculus; for inhibition at 3 µM / inhibition at 10 µM / inhibition at 30 µM / inhibition at 100 µM / inhibition at 300 µM / inhibition at 1000 µM / inhibition at 3000 µM / Inhibition (%) of melanogenesis: theophylline-stimulated B16 4A5 cells; for IC50: theophylline (1 mM)-stimulated B16 melanoma 4A5 cells; for inhibition at 3000 µM / Inhibition (%) of melanogenesis: 3000 µM
Experimental: (§1) The effects on theophylline-stimulated melanogenesis and viability of B16 melanoma 4A5 cells were examined according to previously described protocols. Briefly, murine B16 melanoma 4A5 cells were seeded into 48-well plates in DMEM. After 24 h of culture, a test compound and theophylline (1 mM) were added and incubated for 72 h. The melanin content and cell viability were then measured. IC50 values were determined graphically.
Inhibition (%) was calculated using the following formula, where A and B indicate the optical density of the vehicle- and test compound-treated groups, respectively, and C indicates cell viability (%) (see below): Inhibition (%) = [(A − B)/A]/(C/100) × 100.

[1] = Cell viability of B16 melanoma 4A5 cells; assay type: cell-based, murine; settings: mouse, B16 4A5 cells
Experimental: as §1

SMILES | inhibition at 100 µM (B16 melanoma 4A5 cells) | IC50 (B16 melanoma 4A5 cells) | viability at 72 h, 100 µM [1] | inhibition at 300 µM (B16 melanoma 4A5 cells) | inhibition at 1000 µM (B16 melanoma 4A5 cells) | inhibition at 3000 µM (B16 melanoma 4A5 cells) | viability at 72 h, 300 µM [1] | viability at 72 h, 1000 µM [1] | viability at 72 h, 3000 µM [1] | other results
CCCCCCCCCCCCCOC1=C(OCC(O)CO)[C@@H]([C@@H](O)CO)OC1=O (some centres unmarked) [compound 13, 3-O-(2,3-dihydroxypropyl)-2-O-tridecyl-AsA] | 108 ± 9.1% | 11.3 µM | 23.5% | – | – | – | – | – | – | Inhibition (%) of mushroom tyrosinase (tyrosinase from mushroom; Substrate: L-DOPA, 10 µM): −4.7 ± 5.0%; Inhibition (%) of mushroom tyrosinase (tyrosinase from mushroom; Substrate: L-DOPA, 30 µM): −4.4 ± 1.8%; Inhibition (%) of mushroom tyrosinase (tyrosinase from mushroom; Substrate: L-Tyrosine, 10 µM): −4.7 ± 2.9%; Inhibition (%) of mushroom tyrosinase (tyrosinase from mushroom; Substrate: L-Tyrosine, 30 µM): −7.1 ± 1.7%; inhibition at 3 µM (B16 melanoma 4A5 cells): 0.1 ± 8.6%; inhibition at 10 µM (B16 melanoma 4A5 cells): 46 ± 7.9%; inhibition at 30 µM (B16 melanoma 4A5 cells): 97.1 ± 2.3%; viability at 72 h, 3 µM [1]: 96.3%; viability at 72 h, 10 µM [1]: 87.2%; viability at 72 h, 30 µM [1]: 63.7%
CCCCCOC1=C(OCC(O)CO)C(=O)O[C@@H]1[C@@H](O)CO (some centres unmarked) [compound 19, 2-O-(2,3-dihydroxypropyl)-3-O-pentyl-AsA] | 14 ± 4.4% | 283 µM | 86.7% | 53 ± 1.1% | 83.1 ± 1.4% | 97.1 ± 0.9% | 73.4% | 54.7% | 22.5% | –
CCCCOC1=C(OCC(O)CO)C(=O)O[C@@H]1[C@@H](O)CO (some centres unmarked) [compound 18, 3-O-butyl-2-O-(2,3-dihydroxypropyl)-AsA] | 0.2 ± 4.4% | 473 µM | 99.8% | 36.3 ± 2.8% | 68 ± 2.1% | 84.1 ± 1.4% | 89.1% | 78.1% | 70.6% | –
CCCCCCCOC1=C(OCC(O)CO)[C@@H]([C@@H](O)CO)OC1=O (some centres unmarked) [compound 7, 3-O-(2,3-dihydroxypropyl)-2-O-heptyl-AsA] | 52.2 ± 5% | 89.1 µM | 79.7% | – | – | – | – | – | – | Inhibition (%) of mushroom tyrosinase (tyrosinase from mushroom; Substrate: L-DOPA, 30 µM): −0.7 ± 3.1%; Inhibition (%) of mushroom tyrosinase (tyrosinase from mushroom; Substrate: L-DOPA, 100 µM): 1.1 ± 4.8%; Inhibition (%) of mushroom tyrosinase (tyrosinase from mushroom; Substrate: L-Tyrosine, 30 µM): −1.7 ± 4.0%; Inhibition (%) of mushroom tyrosinase (tyrosinase from mushroom; Substrate: L-Tyrosine, 100 µM): 1.0 ± 2.4%; inhibition at 3 µM (B16 melanoma 4A5 cells): -4.2 ± 6.3%; inhibition at 10 µM (B16 melanoma 4A5 cells): 3.4 ± 5.2%; inhibition at 30 µM (B16 melanoma 4A5 cells): 20 ± 6.4%; viability at 72 h, 3 µM [1]: 101%; viability at 72 h, 10 µM [1]: 95.4%; viability at 72 h, 30 µM [1]: 91.9%
CCCCOC1=C(OCC(O)CO)[C@@H]([C@@H](O)CO)OC1=O (some centres unmarked) [compound 4, 2-O-butyl-3-O-(2,3-dihydroxypropyl)-AsA] | -1.2 ± 0.8% | 2220 µM | 94.5% | 20.8 ± 10.6% | 30.2 ± 5.1% | 58.9 ± 2.7% | 97.4% | 93.9% | 88.7% | –
Oc1ccc(O)cc1 [Hydroquinone, reference compound] | – | 8.7 µM | – | – | – | – | – | – | – | inhibition at 3 µM (B16 melanoma 4A5 cells): 37.4 ± 3.7%; inhibition at 10 µM (B16 melanoma 4A5 cells): 59.5 ± 3.7%; inhibition at 30 µM (B16 melanoma 4A5 cells): 76.3 ± 2.1%; viability at 72 h, 3 µM [1]: 94.1%; viability at 72 h, 10 µM [1]: 85.2%; viability at 72 h, 30 µM [1]: 64.3%
CCCOC1=C(OCC(O)CO)C(=O)O[C@@H]1[C@@H](O)CO (some centres unmarked) [compound 17, 2-O-(2,3-dihydroxypropyl)-3-O-propyl-AsA] | -5.9 ± 3.3% | > 3000 µM | 98.4% | -3.9 ± 4.1% | 1.3 ± 4.2% | 23.2 ± 5.6% | 95.6% | 92% | 82.9% | –
O=C1O[C@H]([C@H](O)CO)C(O)=C1O [Erythrobic acid, reference compound] | -22.9 ± 6.5% | – | 98.7% | -10.6 ± 4.8% | 75.8 ± 4.2% | 92.6 ± 15.3% | 94.8% | 44.5% | 29.8% | –
CCCCCOC1=C(OCC(O)CO)[C@@H]([C@@H](O)CO)OC1=O (some centres unmarked) [compound 5, 3-O-(2,3-dihydroxypropyl)-2-O-pentyl-AsA] | -14 ± 9.7% | 931 µM | 118% | 29.8 ± 8.1% | 45.9 ± 1.2% | 81.9 ± 3.3% | 107% | 105% | 78.7% | –
O=C1O[C@H]([C@@H](O)CO)C(O)=C1O[C@H]1O[C@H](CO)[C@@H](O)[C@H](O)[C@H]1O [2-O-α-D-Glucopyranosyl-AsA, reference compound] | – | > 3000 µM | – | – | -8.9 ± 2.7% | 15 ± 3.5% | – | 107% | 108% | Inhibition (%) of melanogenesis (B16 melanoma 4A5 cells): significantly inhibit melanogenesis
CCOC1=C(OCC(O)CO)C(=O)O[C@@H]1[C@@H](O)CO (some centres unmarked) [compound 16, 2-O-(2,3-dihydroxypropyl)-3-O-ethyl-AsA] | -4.2 ± 2.3% | > 3000 µM | 105% | -5.4 ± 1.5% | 12.1 ± 2.2% | 42 ± 1.4% | 95.9% | 95.9% | 84% | –
OC[C@H]1O[C@@H](Oc2ccc(O)cc2)[C@H](O)[C@@H](O)[C@@H]1O [Arbutin, reference compound] | 32.2 ± 3.4% | 830 µM | 92.2% | 22.3 ± 4.3% | 63 ± 2.3% | 94 ± 2.8% | 96% | 96.2% | 106% | –
O=C1O[C@H]([C@@H](O)CO)C(O)=C1OP(=O)(O)O [Magnesium L-ascorbyl-2-phosphate, reference compound] | – | > 3000 µM | – | – | 2.1 ± 4.1% | 14.5 ± 1.3% | – | 126% | 92.8% | Inhibition (%) of melanogenesis (B16 melanoma 4A5 cells): significantly inhibit melanogenesis
O=C1O[C@H]([C@@H](O)CO)C(OCC(O)CO)=C1O (some centres unmarked) [compound 1, 3-O-(2,3-dihydroxypropyl)-AsA] | -11.8 ± 1.9% | > 3000 µM | 100% | -10.7 ± 1.1% | -5 ± 2.9% | 0.5 ± 2.5% | 96.8% | 100% | 108% | –
O=C1O[C@H]([C@@H](O)CO)C(O)=C1OCC(O)CO (some centres unmarked) [compound 15, 2-O-(2,3-dihydroxypropyl)-AsA] | -9.7 ± 1.2% | > 3000 µM | 101% | -4.8 ± 1% | -2.3 ± 1.7% | -6.1 ± 2.7% | 102% | 102% | 107% | –
CCOC1=C(OCC(O)CO)[C@@H]([C@@H](O)CO)OC1=O (some centres unmarked) [compound 2, 3-O-(2,3-dihydroxypropyl)-2-O-ethyl-AsA] | -28.1 ± 3.2% | > 3000 µM | 101% | -2.8 ± 3.6% | -8.9 ± 2% | 40.4 ± 8.6% | 99.7% | 101% | 104% | –
CCCOC1=C(OCC(O)CO)[C@@H]([C@@H](O)CO)OC1=O (some centres unmarked) [compound 3, 3-O-(2,3-dihydroxypropyl)-2-O-propyl-AsA] | -2.1 ± 5.3% | > 3000 µM | 102% | 8.2 ± 3.2% | 2.5 ± 7.9% | 35.9 ± 3.4% | 98.2% | 94.5% | 95% | –
